Experimental data from patent publication US20100098782A1, “USE OF SODIUM ACID SULFATE AS A DISINFECTANT” (JOHNSONDIVERSEY, INC., priority 2008, published 2010).
Several values for one entry are separate records, joined by “and”; a condition that tells them apart may be missing. Equal values may be shown once.

Assays:
[1] = tested on: organisms on freshly killed whole birds (3M Aerobic Count Petrifilm); test: Whole bird carcass dip test, aerobic count; settings: for Organisms/Bird: individual birds
Procedure: In order to test the efficacy of the composition of the present invention for use in treating animal carcasses, freshly killed whole birds were dipped and completely immersed in 13 liters of treatment solution for 10 seconds. […] The growth medium was 3M Aerobic Count Petrifilm. The incubation was 2-3 days at 35° C. […] The same test was repeated using commercially available products, […]12, and Eden, comparing these with sodium acid sulfate and sodium acid sulfate in combination with citric acid.

Salmonella enteriditis = test: Antimicrobial effectiveness, suspension contact test; type: cell-based
Procedure: In order to determine the antimicrobial effectiveness of the present invention, Salmonella enteriditis at 120,000,000 organisms per milliliter was contacted for 30 seconds, 1 minute, or 2 minutes, with 2,000 ppm SAS, or 4,000 ppm SAS at the indicated pH. The neutralizer was 0.2M Phosphate Buffer, pH 7.0, and the growth medium was 3M Aerobic Count Petrifilm using an incubation time of 4 days at 35° C.

[2] = tested on: Escherichia coli, ATCC #11229; test: Modification of the Germicidal and Detergent Sanitizing Action of Disinfectants (A.O.A.C.); type: cell-based; settings: 4000 ppm, 25° C.
Procedure: The germicidal effectiveness of 4000 ppm of sodium acid sulfate was tested at various levels of pH. The pH of the solutions was adjusted by addition of sodium hydroxide. The test method was A Modification of the Germicidal and Detergent Sanitizing Action of Disinfectants, A.O.A.C., 17th Edition 2000. The test organism was Escherichia coli, ATCC #11229 (560,000 org/ml), which was contacted with the sodium acid sulfate for 10 seconds and 30 seconds at 25° C. The recovery medium was Tryptone Glucose Extract Agar with Asolectin and Tween 80. Phosphate Buffer 0.2M was employed.

[3] = 2400 ppm Lactic Acid, 10 seconds dip, pre 5 bird dip pH 1.80, post pH 1.96
[4] = 4800 ppm Lactic Acid, 10 seconds dip, pre 5 bird dip pH 1.80, post pH 1.96
[5] = 2000 ppm, pH 1.5, 30 seconds contact
[6] = 2000 ppm, pH 1.5, 2 minutes contact
[7] = 2000 ppm, pH 1.75, 30 seconds contact
[8] = 2000 ppm, pH 1.75, 1 minute contact
[9] = 2000 ppm, pH 2.0, 30 seconds contact
[10] = 2000 ppm, pH 2.0, 1 minute contact
[11] = 2000 ppm, pH 2.0, 2 minutes contact
[12] = 2000 ppm, pH 2.25, 30 seconds contact
[13] = 2000 ppm, pH 2.25, 1 minute contact
[14] = 2000 ppm, pH 2.25, 2 minutes contact
[15] = 2000 ppm, pH 2.5, 30 seconds contact
[16] = 2000 ppm, pH 2.5, 1 minute contact
[17] = 2000 ppm, pH 2.5, 2 minutes contact
[18] = 4000 ppm, pH 1.5, 30 seconds contact
[19] = 4000 ppm, pH 1.75, 30 seconds contact
[20] = 4000 ppm, pH 2.0, 30 seconds contact
[21] = 4000 ppm, pH 2.25, 30 seconds contact
[22] = 4000 ppm, pH 2.25, 1 minute contact
[23] = 4000 ppm, pH 2.25, 2 minutes contact
[24] = 4000 ppm, pH 2.5, 30 seconds contact
[25] = 4000 ppm, pH 2.5, 1 minute contact
[26] = 4000 ppm, pH 2.5, 2 minutes contact
[27] = 2000 ppm SAS, 10 seconds dip, pre 5 bird dip pH 1.60, post pH 1.78
[28] = 2000 ppm SAS, repeated test (Table 5)
[29] = 4000 ppm SAS, 10 seconds dip, pre 5 bird dip pH 1.56, post pH 1.75

## CC(O)C(=O)O (stereo not drawn) [Lactic Acid, lactic acid, reference compound]
[1]; [3]
  Average Organisms/Bird: 2,054,800 Organisms/Bird
  Organisms/Bird: 600,000 Organisms/Bird and 1,074,000 Organisms/Bird and 2,120,000 Organisms/Bird and 3,240,000 Organisms/Bird (2×)
[1]; 2400 ppm Lactic Acid, 10 seconds dip, pre 5 bird dip pH 1.80, post pH 1.96, vs no-treatment control
  % Reduction: 10.8%
[1]; [4]
  Average Organisms/Bird: 1,430,000 Organisms/Bird
  Organisms/Bird: 1,000,000 Organisms/Bird and 1,800,000 Organisms/Bird and 1,400,000 Organisms/Bird and 1,520,000 Organisms/Bird
[1]; 4800 ppm Lactic Acid, 10 seconds dip, pre 5 bird dip pH 1.80, post pH 1.96, vs no-treatment control
  % Reduction: 37.9%
[1]; lactic acid itself (2400 and 4800 ppm)
  antimicrobial effect in carcass dip (in words): relatively little antimicrobial effect

## O=S(=O)([O-])O.[Na+] [SAS, sodium acid sulfate]
Salmonella enteriditis; [5]
  % Reduction: 90.250% and 85.250%
  Survivors: 11,700,000 org/ml and 17,700,000 org/ml
Salmonella enteriditis; 2000 ppm, pH 1.5, 1 minute contact
  % Reduction: 99.962% and 99.983%
Salmonella enteriditis; [6]
  % Reduction: >99.999%
  Survivors: 10 org/ml and 20 org/ml
Salmonella enteriditis; [7]
  % Reduction: <79.167%
  Survivors: >25,000,000 org/ml
Salmonella enteriditis; [8]
  % Reduction: <97.917%
  Survivors: >25,000,000 org/ml
Salmonella enteriditis; 2000 ppm, pH 1.75, 2 minutes contact
  % Reduction: 98.192% and 98.817%
Salmonella enteriditis; [9]
  % Reduction: <79.167%
  Survivors: >25,000,000 org/ml
Salmonella enteriditis; [10]
  % Reduction: <97.917%
  Survivors: >25,000,000 org/ml
Salmonella enteriditis; [11]
  % Reduction: <97.917%
  Survivors: >25,000,000 org/ml
Salmonella enteriditis; [12]
  % Reduction: <79.167%
  Survivors: >25,000,000 org/ml
Salmonella enteriditis; [13]
  % Reduction: <97.917%
  Survivors: >25,000,000 org/ml
Salmonella enteriditis; [14]
  % Reduction: <97.917%
  Survivors: >25,000,000 org/ml
Salmonella enteriditis; [15]
  % Reduction: <79.167%
  Survivors: >25,000,000 org/ml
Salmonella enteriditis; [16]
  % Reduction: <97.917%
  Survivors: >25,000,000 org/ml
Salmonella enteriditis; [17]
  % Reduction: <97.917%
  Survivors: >25,000,000 org/ml
Salmonella enteriditis; [18]
  % Reduction: 96.167% and 92.833%
  Survivors: 4,600,000 org/ml and 8,600,000 org/ml
Salmonella enteriditis; 4000 ppm, pH 1.5, 1 minute contact
  % Reduction: 99.994% and 99.976%
Salmonella enteriditis; 4000 ppm, pH 1.5, 2 minutes contact
  % Reduction: >99.999% and 99.997%
Salmonella enteriditis; [19]
  % Reduction: 94.250% and 92.917%
  Survivors: 6,900,000 org/ml and 8,500,000 org/ml
Salmonella enteriditis; 4000 ppm, pH 1.75, 1 minute contact
  % Reduction: 96.667% and 98.417%
Salmonella enteriditis; 4000 ppm, pH 1.75, 2 minutes contact
  % Reduction: 98.933% and 98.833%
Salmonella enteriditis; [20]
  % Reduction: 83.250% and 84.500%
  Survivors: 20,100,000 org/ml and 18,600,000 org/ml
Salmonella enteriditis; 4000 ppm, pH 2.0, 1 minute contact
  % Reduction: 94.583% and 97.833%
Salmonella enteriditis; 4000 ppm, pH 2.0, 2 minutes contact
  % Reduction: 96.167% and 91.417%
Salmonella enteriditis; [21]
  % Reduction: <79.167%
  Survivors: >25,000,000 org/ml
Salmonella enteriditis; [22]
  % Reduction: <79.167%
  Survivors: >25,000,000 org/ml
Salmonella enteriditis; [23]
  % Reduction: <79.167%
  Survivors: >25,000,000 org/ml
Salmonella enteriditis; [24]
  % Reduction: <79.167%
  Survivors: >25,000,000 org/ml
Salmonella enteriditis; [25]
  % Reduction: <79.167%
  Survivors: >25,000,000 org/ml
Salmonella enteriditis; [26]
  % Reduction: <79.167%
  Survivors: >25,000,000 org/ml
Salmonella enteriditis; at less than pH 2.5 and, particularly less than 2.0
  antimicrobial activity (in words): greatly enhanced
[2]; pH 1.49, 10 seconds contact
  % Reduction: 92.321%
  Survivors: 43,000,000 org/ml
[2]; pH 1.49, 30 seconds contact
  % Reduction: 92.804%
  Survivors: 40,300,000 org/ml
[2]; pH 1.59, 10 seconds contact
  % Reduction: 88.696%
  Survivors: 63,300,000 org/ml
[2]; pH 1.59, 30 seconds contact
  % Reduction: 89.732%
  Survivors: 57,500,000 org/ml
[2]; pH 1.70, 10 seconds contact
  % Reduction: 90.750%
  Survivors: 51,800,000 org/ml
[2]; pH 1.70, 30 seconds contact
  % Reduction: 91.785%
  Survivors: 46,000,000 org/ml
[2]; pH 1.79, 10 seconds contact
  % Reduction: 92.321%
  Survivors: 43,000,000 org/ml
[2]; pH 1.79, 30 seconds contact
  % Reduction: 93.839%
  Survivors: 34,500,000 org/ml
[2]; pH 1.89, 10 seconds contact
  % Reduction: 92.804%
  Survivors: 40,300,000 org/ml
[2]; pH 1.89, 30 seconds contact
  % Reduction: 94.375%
  Survivors: 31,500,000 org/ml
[2]; pH 1.99, 10 seconds contact
  % Reduction: 68.750%
  Survivors: 175,000,000 org/ml
[2]; pH 1.99, 30 seconds contact
  % Reduction: 81.785%
  Survivors: 102,000,000 org/ml
[2]; pH 2.11, 10 seconds contact
  % Reduction: 81.607%
  Survivors: 103,000,000 org/ml
[2]; pH 2.11, 30 seconds contact
  % Reduction: 82.857%
  Survivors: 96,000,000 org/ml
[2]; pH 2.18, 10 seconds contact
  % Reduction: 79.464%
  Survivors: 115,000,000 org/ml
[2]; pH 2.18, 30 seconds contact
  % Reduction: 98.089%
  Survivors: 107,000,000 org/ml
[2]; pH 2.29, 10 seconds contact
  % Reduction: 81.250%
  Survivors: 105,000,000 org/ml
[2]; pH 2.29, 30 seconds contact
  % Reduction: 86.250%
  Survivors: 77,000,000 org/ml
[2]; pH 2.39, 10 seconds contact
  % Reduction: 76.250%
  Survivors: 133,000,000 org/ml
[2]; pH 2.39, 30 seconds contact
  % Reduction: 77.142%
  Survivors: 128,000,000 org/ml
[2]; pH 2.49, 10 seconds contact
  % Reduction: 71.607%
  Survivors: 159,000,000 org/ml
[2]; pH 2.49, 30 seconds contact
  % Reduction: 72.142%
  Survivors: 156,000,000 org/ml
[1]; [27]
  Average Organisms/Bird: 576,000 Organisms/Bird
  Organisms/Bird: 584,000 Organisms/Bird and 536,000 Organisms/Bird and 660,000 Organisms/Bird and 520,000 Organisms/Bird and 580,000 Organisms/Bird
[1]; 2000 ppm SAS, 10 seconds dip, pre 5 bird dip pH 1.60, post pH 1.78, vs no-treatment control
  % Reduction: 75.0%
[1]; [28]
  Average Organisms/Bird: 246,400 Organisms/Bird
  Organisms/Bird: 556,000 Organisms/Bird and 128,000 Organisms/Bird and 264,000 Organisms/Bird and 88,000 Organisms/Bird and 196,000 Organisms/Bird
[1]; 2000 ppm SAS, repeated test (Table 5), vs wash control
  % Reduction: 88.7%
[1]; [29]
  Average Organisms/Bird: 618,400 Organisms/Bird
  Organisms/Bird: 396,000 Organisms/Bird and 528,000 Organisms/Bird and 392,000 Organisms/Bird and 476,000 Organisms/Bird and 1,300,000 Organisms/Bird
[1]; 4000 ppm SAS, 10 seconds dip, pre 5 bird dip pH 1.56, post pH 1.75, vs no-treatment control
  % Reduction: 73.2%
[1]; both 2000 ppm and 4000 ppm
  performance in carcass dip (in words): perform well
